Test: Toxicity in iv dosed white Swiss-Webster mouse
Format: organism-based
Details: in vivo

Q: With CCN1C[C@]2(COC(=O)c3ccccc3N3C(=O)C[C@H](C)C3=O)CC[C@H](O)[C@@]34[C@@H]5C[C@H]6[C@H](OC)[C@@H]5[C@](O)(C[C@@H]6OC)[C@](O)([C@@H](OC)[C@H]23)[C@@H]14 [GRANDIFLORINE] as the molecule, how does the LD50 read?
A: 8.3 mg/kg
